Experimental data reported in patent publication US20040176431A1, “Antiproliferative 2-(sulfo-phenyl)-aminothiazole derivatives and pharmaceutical compositions, and methods for their use” (Pfizer, Inc., priority 2003, published 2004).

Target: T1, CDK4/cyclin D3 (Homo sapiens, UniProt P11802)
T1 construct: made in house; host or cells: insect cells (baculovirus co-infection)
Experiment: Inhibition of CDK4/Cyclin D retinoblastoma kinase activity;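 as to % Inhib CDK4/D @ 1 μM: relative to DMSO control wells without compound minus no-enzyme background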
Type: biochemical
Settings: for % Inhib CDK4/D @ 0.1 μM / inhibition at 0.1 µM: test compound at 0.1 μM; for % Inhib CDK4/D @ 1 μM / inhibition at 1 µM: test compound at 1 μM (head line shifted: 'mM' printed beside 'Structure'); for % Inhib CDK4/D @ 0.03 / inhibition at 0.03 µM: test compound at 0.03 (unit cell empty, head line shifted; μM); for inhibition at 0.1 µM: read-out: % Inhib CDK4/D @ 0.1 μM; for inhibition at 1 µM: read-out: % Inhib CDK4/D @ 1 μM; for inhibition at 0.03 µM: read-out: % Inhib CDK4/D @ 0.03
Summary of the method: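 Apparent Ki derived by fitting activity at varied inhibitor concentrations to competitive (or competitive tight-binding) inhibition equations, background without enzyme subtracted. Radiometric filter-binding read-out of Rb(386-928) phosphorylation by 5 nM CDK4/cyclin D3(1-264); 25 μM ATP, pH 7.4, 2% DMSO, 30° C., 20 min, extended to 60 min for tight binders.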

T1 sequence (P11802 whole entry): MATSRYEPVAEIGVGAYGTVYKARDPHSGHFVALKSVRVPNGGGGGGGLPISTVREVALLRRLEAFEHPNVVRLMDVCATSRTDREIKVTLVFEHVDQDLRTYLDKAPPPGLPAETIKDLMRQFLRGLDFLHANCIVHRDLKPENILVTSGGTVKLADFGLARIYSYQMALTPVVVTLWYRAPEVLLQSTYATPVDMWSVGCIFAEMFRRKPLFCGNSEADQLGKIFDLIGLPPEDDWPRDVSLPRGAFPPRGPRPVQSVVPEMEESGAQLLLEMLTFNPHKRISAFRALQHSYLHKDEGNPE
T1 sequence (P30281 1-264 partner limits assumed): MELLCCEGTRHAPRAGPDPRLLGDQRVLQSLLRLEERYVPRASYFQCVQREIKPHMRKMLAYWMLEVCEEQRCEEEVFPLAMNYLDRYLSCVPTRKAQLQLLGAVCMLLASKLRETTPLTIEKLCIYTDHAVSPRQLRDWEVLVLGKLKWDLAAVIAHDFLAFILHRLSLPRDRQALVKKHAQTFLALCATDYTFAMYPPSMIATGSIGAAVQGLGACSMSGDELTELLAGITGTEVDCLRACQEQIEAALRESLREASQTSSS

Compound | % Inhib CDK4/D @ 0.1 μM | % Inhib CDK4/D @ 1 μM | % Inhib CDK4/D @ 0.03 | inhibition at 0.1 µM | inhibition at 1 µM | inhibition at 0.03 µM | Ki (apparent Ki, Rb fragment substrate)
Nc1nc(Nc2ccc(S(=O)(=O)CC3CO3)cc2)sc1C(=O)c1c(Cl)cccc1Cl (stereo not shown) [DD(212)] | 17% | −14% | −16% | – | – | – | –
COCC[S+]([O-])c1ccc(Nc2nc(N)c(C(=O)c3c(Cl)cccc3Cl)s2)cc1 (stereo not shown) [DD(94)] | – | – | – | 51% | 70.9% | 17% | –
NC(=O)C[S+]([O-])c1ccc(Nc2nc(N)c(C(=O)c3c(Cl)cccc3Cl)s2)cc1 (stereo not shown) [DD(101)] | – | – | – | 78% | 80.4% | 38% | –
NC(=O)C[S+]([O-])c1cccc(Nc2nc(N)c(C(=O)c3c(Cl)cccc3Cl)s2)c1 (stereo not shown) [DD(141)] | – | – | – | 71% | 64.5% | 36% | –
NC(=O)CSc1cccc(Nc2nc(N)c(C(=O)c3c(Cl)cccc3Cl)s2)c1 [DD(61)] | – | – | – | 57% | 81.5% | 20% | –
C=CCCSc1cccc(Nc2nc(N)c(C(=O)c3c(Cl)cccc3Cl)s2)c1 [DD(46)] | – | – | – | 39% | 50.7% | 18% | –
CC1(C[S+]([O-])c2cccc(Nc3nc(N)c(C(=O)c4c(Cl)cccc4Cl)s3)c2)CO1 (stereo not shown) [DD(140)] | – | – | – | 41% | 68% | 25% | –
COC(=O)CS(=O)(=O)c1ccc(Nc2nc(N)c(C(=O)c3c(Cl)cccc3Cl)s2)cc1 [DD(186)] | – | 38.9% | 7% | 26% | – | – | –
COC(=O)CSc1cccc(Nc2nc(N)c(C(=O)c3c(Cl)cccc3Cl)s2)c1 [DD(66)] | – | – | – | 23% | 77.1% | 18% | –
CC(C)CCOC(=O)CS(=O)(=O)c1ccc(Nc2nc(N)c(C(=O)c3c(Cl)cccc3Cl)s2)cc1 [DD(192)] | 11% | −29% | 5.6% | – | – | – | –
Nc1nc(Nc2cccc([S+]([O-])Cc3ccncc3)c2)sc1C(=O)c1c(Cl)cccc1Cl (stereo not shown) [DD(155)] | – | – | – | 35% | 59.6% | 25% | –
CCN(CC)C(=O)CSc1cccc(Nc2nc(N)c(C(=O)c3c(Cl)cccc3Cl)s2)c1 [DD(41)] | – | – | – | 33% | 70.3% | 28% | –
CC(C)(CO)C[S+]([O-])c1cccc(Nc2nc(N)c(C(=O)c3c(Cl)cccc3Cl)s2)c1 (stereo not shown) [DD(160)] | – | – | – | 19% | 49% | 8.1% | –
Nc1nc(Nc2cccc(SCCN3CCCCC3)c2)sc1C(=O)c1c(Cl)cccc1Cl [DD(51)] | – | – | – | 30% | 75.6% | 4.1% | –
Nc1nc(Nc2ccc([S+]([O-])CCO)cc2)sc1C(=O)c1c(Cl)cccc1Cl (stereo not shown) [DD(109)] | 67% | 73.5% | 25% | – | – | – | –
CC(C)CCCSc1ccc(Nc2nc(N)c(C(=O)c3c(Cl)cccc3Cl)s2)cc1 [DD(30)] | – | – | – | 13% | 32.3% | 3.1% | –
Nc1nc(Nc2ccc(S(=O)(=O)CCN3CCCCC3)cc2)sc1C(=O)c1c(Cl)cccc1Cl [DD(171)] | – | 17.1% | −29% | 21% | – | – | –
COCCS(=O)(=O)c1ccc(Nc2nc(N)c(C(=O)c3c(Cl)cccc3Cl)s2)cc1 [DD(174)] | – | 24.6% | −16% | 24% | – | – | –
CCCSc1ccc(Nc2nc(N)c(C(=O)c3c(Cl)cccc3Cl)s2)cc1 [DD(25)] | – | – | – | 0.4% | 65.5% | -10% | –

Compound | % Inhib CDK4/D @ 0.1 μM | % Inhib CDK4/D @ 1 μM | % Inhib CDK4/D @ 0.03 | inhibition at 0.1 µM | inhibition at 1 µM | inhibition at 0.03 µM | Ki (apparent Ki, Rb fragment substrate)
CCC(CC)CSc1cccc(Nc2nc(N)c(C(=O)c3c(Cl)cccc3Cl)s2)c1 [DD(76)] | – | – | – | 9.6% | 29.5% | 19% | –
COC(=O)/C=C/CSc1ccc(Nc2nc(N)c(C(=O)c3c(Cl)cccc3Cl)s2)cc1 [DD(4)] | – | – | – | 11% | 49.1% | 5.4% | –
CC(C)=CCSc1cccc(Nc2nc(N)c(C(=O)c3c(Cl)cccc3Cl)s2)c1 [DD(64)] | – | – | – | 27% | 22.1% | -11% | –
CCC(CC)S(=O)(=O)c1ccc(Nc2nc(N)c(C(=O)c3c(Cl)cccc3Cl)s2)cc1 [DD(196)] | – | – | – | 15% | 14.4% | 1.3% | –
COCC[S+]([O-])c1cccc(Nc2nc(N)c(C(=O)c3c(Cl)cccc3Cl)s2)c1 (stereo not shown) [DD(134)] | – | – | – | 48% | 49.9% | 8.4% | –
CCC(CC)CSc1ccc(Nc2nc(N)c(C(=O)c3c(Cl)cccc3Cl)s2)cc1 [DD(36)] | – | – | – | 18% | 49.6% | 9% | –
Nc1nc(Nc2cccc([S+]([O-])CC3CO3)c2)sc1C(=O)c1c(Cl)cccc1Cl (stereo not shown) [DD(132)] | – | – | – | 64% | 62% | 44% | –
Nc1nc(Nc2ccc(SCC3CC3)cc2)sc1C(=O)c1c(Cl)cccc1Cl [DD(16)] | – | – | – | -7% | 56.2% | -9.4% | –
CC1(CSc2ccc(Nc3nc(N)c(C(=O)c4c(Cl)cccc4Cl)s3)cc2)CO1 (stereo not shown) [DD(20)] | – | – | – | 6.8% | 68.2% | 4.2% | –
CN1CCCC(CS(=O)(=O)c2ccc(Nc3nc(N)c(C(=O)c4c(Cl)cccc4Cl)s3)cc2)C1 (stereo not shown) [DD(187)] | – | −6.4% | 6% | 24% | – | – | –
Nc1nc(Nc2ccc(S(=O)(=O)CC3CNC(=O)O3)cc2)sc1C(=O)c1c(Cl)cccc1Cl (stereo not shown) [DD(209)] | 8% | −21% | −10% | – | – | – | –
NC(=O)CC[S+]([O-])c1cccc(Nc2nc(N)c(C(=O)c3c(Cl)cccc3Cl)s2)c1 (stereo not shown) [DD(148)] | – | – | – | 53% | 65.5% | 35% | –
COC(=O)/C=C/CSc1cccc(Nc2nc(N)c(C(=O)c3c(Cl)cccc3Cl)s2)c1 [DD(44)] | – | – | – | 31% | 46% | 23% | –
COC(=O)/C=C/CS(=O)(=O)c1ccc(Nc2nc(N)c(C(=O)c3c(Cl)cccc3Cl)s2)cc1 [DD(203)] | 37% | 33.7% | −5.5% | – | – | – | –
COC(=O)/C=C/C[S+]([O-])c1cccc(Nc2nc(N)c(C(=O)c3c(Cl)cccc3Cl)s2)c1 (stereo not shown) [DD(124)] | – | – | – | 34% | 38.8% | 2.1% | –
Nc1nc(Nc2ccc(Sc3ccncc3)cc2)sc1C(=O)c1c(Cl)cccc1Cl [W(1), 4-Amino-5-(2,6-dichloro-benzoyl)-2-[4-(pyridin-4-ylthio)-phenylamino]-thiazole] | – | – | – | – | – | – | 89 nM
CCOC(=O)CCS(=O)(=O)c1ccc(Nc2nc(N)c(C(=O)c3c(Cl)cccc3Cl)s2)cc1 [DD(182))] | 17% | 5.4% | −12% | – | – | – | –
CC(C)=CCSc1ccc(Nc2nc(N)c(C(=O)c3c(Cl)cccc3Cl)s2)cc1 [DD(24)] | – | – | – | -3% | 42.5% | -17% | –
Nc1nc(Nc2cccc(SCc3ncon3)c2)sc1C(=O)c1c(Cl)cccc1Cl [DD(48)] | – | – | – | 36% | 52.2% | 26% | –
